Measurements reported in US8076342B2, “Malonate salt of 4-((1R,3S)-6-chloro-3-phenylindan-1-yl)-1,2,2-trimethylpiperazine and uses of same” (priority 2003, dated 2011).
“Also recorded” adds a separate entry of the source.

How the values were obtained:
rats = conditions: cited from earlier work
[1] = Hygroscopicity by Dynamic Vapour sorption (DVS); format: physicochemical
Excerpt: The hygroscopicity of the fumarate salt, the succinate salt (the alpha form) and the malonate salt was investigated by Dynamic Vapour sorption (DVS). […] The malonate absorbs gradually up to 1% of water when the relative humidity is raised to 95%, but with no hysteresis.

[2] = Stability of the salts (heat/humidity, heat, light; HPLC impurity peak area); format: physicochemical
Description: The stability of the salts was investigated under the following circumstances:
Heat, 60° C./80% RH: Samples were stored at 60° C. with 80% RH for one week. Then they were dissolved and analysed by HPLC.
Heat, 90° C.: Samples (˜10 mg) were stored at 90° C. in closed containers containing 1 droplet of water. Then they were dissolved and analysed by HPLC.
Light: Samples were placed in the light cabinet at 250 w/m^2 for 24 hours. Then they were dissolved and analysed by HPLC.
The area of peaks in the chromatograms besides the peaks corresponding to the substance or the acid was summarized.

dopamine D2 receptor = dopamine D2 receptor (Homo sapiens, UniProt P14416); conditions: cited from earlier work
dopamine D1 receptor = conditions: cited from earlier work
5-HT2 receptor = conditions: cited from earlier work
D1 and D2 = conditions: cited from earlier work
[3] = 90° C., closed containers containing 1 droplet of water

dopamine D2 receptor, sequence (P14416 whole entry, species assumed): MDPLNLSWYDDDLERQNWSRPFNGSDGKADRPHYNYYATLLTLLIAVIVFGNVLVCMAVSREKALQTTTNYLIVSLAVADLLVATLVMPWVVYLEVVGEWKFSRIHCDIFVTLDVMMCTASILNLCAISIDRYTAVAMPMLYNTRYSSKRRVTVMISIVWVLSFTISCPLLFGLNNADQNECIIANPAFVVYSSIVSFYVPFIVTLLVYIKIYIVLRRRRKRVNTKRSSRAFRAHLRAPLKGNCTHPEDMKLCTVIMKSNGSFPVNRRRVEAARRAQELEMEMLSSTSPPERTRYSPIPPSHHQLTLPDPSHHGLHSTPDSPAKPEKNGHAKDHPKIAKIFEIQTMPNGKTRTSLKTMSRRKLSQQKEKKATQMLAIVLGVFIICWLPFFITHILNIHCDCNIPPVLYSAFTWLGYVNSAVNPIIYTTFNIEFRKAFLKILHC

Row | Hygroscopicity ([1]; DVS) | Sum of impurity peak area % ([2]; 60° C./80% RH, one week) [%] | Sum of impurity peak area % [2, 3] [%] | Sum of impurity peak area % ([2]; Light, 250 w/m^2 for 24 hours) [%] | Stability compared with the fumarate salt and the hydrogen malonate salt [2] | Degradation ([2]; all stability conditions) | Water absorbed ([1]; relative humidity raised to 95%) | Stability compared with the fumarate salt ([2]; 60° C./80% relative humidity (RH)) | Stability compared with the fumarate salt ([2]; 90° C.) | Stability compared with the fumarate salt ([2]; exposed to light) | SMILES | Induction of catalepsy (rats) | D2 antagonist potency (dopamine D2 receptor) | D1 antagonist potency (dopamine D1 receptor) | 5-HT2 antagonist potency (5-HT2 receptor) | D1 versus D2 antagonist potency in vivo (D1 and D2) | Hysteresis of water sorption ([1]; DVS)
1 | non-hygroscopic | 0.07 | 0.09 | 0.06 |  |  |  |  |  |  | CN1CCN([C@@H]2C[C@@H](c3ccccc3)c3ccc(Cl)cc32)CC1(C)C.O=C(O)/C=C/C(=O)O (relative stereo) [Fumarate, trans-4-((1R,3S)-6-chloro-3-phenylindan-1-yl)-1,2,2-trimethylpiperazinium (I) hydrogen fumarate] | does not induce catalepsy | potent | potent | potent | equipotent | 
2 | non-hygroscopic | 0 | 0 | 0 | more stable | does not show any degradation at all |  |  |  |  | CN1CCN([C@@H]2C[C@@H](c3ccccc3)c3ccc(Cl)cc32)CC1(C)C.O=C(O)CCC(=O)O (relative stereo) [Succinate 1:1 alpha, trans-4-((1R,3S)-6-chloro-3-phenylindan-1-yl)-1,2,2-trimethyl-piperazinium (I) hydrogen succinate] |  |  |  |  |  | 
3 | non-hygroscopic | 0 | 6.19 | 0.06 |  |  | up to 1% | more stable | less stable | similar | CN1CCN([C@@H]2C[C@@H](c3ccccc3)c3ccc(Cl)cc32)CC1(C)C.O=C(O)CC(=O)O (relative stereo) [Malonate 1:1, trans-4-((1R,3S)-6-chloro-3-phenylindan-1-yl)-1,2,2-trimethylpiperazinium (I) hydrogen malonate] |  |  |  |  |  | no hysteresis; also recorded: no hysterhesis
